# Data published in patent US10381110B2, “Molecules” (University of Dundee, priority 2010, dated 2019).
# Counter-ions that a name gives are not always drawn. Like-named read-outs stand apart in the source and are kept apart here.
# How the values were obtained:
# Experiment in all cases: Secondary radioligand binding assay (Ki)
# 5-HT1D = 5-HT1D (Homo sapiens, UniProt P28221)
# Description: (§1) Assay Buffer: Standard Binding Buffer (50 mM Tris-HCl, 10 mM MgCl2, 1 mM EDTA, pH 7.4)
# (§2) Membrane Fraction Source: Transiently or stably transfected cell lines (e.g., HEK293, COS, CHO, NIH3T3)
# (§3) Radioligand is diluted to five times the assay concentration (see Table 18) in Standard Binding Buffer. Typically, the assay concentration of radioligand is a value between one half the KD and the KD of a particular radioligand at its target. 50 μl aliquots of radioligand are dispensed into the wells of a 96-well plate containing 100 μl of Standard Binding Buffer. Then, duplicate 50 μl aliquots of the test and reference compound dilutions are added.
# The 250 μl reactions are incubated at room temperature and shielded from light (to prevent photolysis of light-sensitive ligands) for 1.5 hours, then harvested by rapid filtration onto Whatman GF/B glass fiber filters pre-soaked with 0.3% polyethyleneimine using a 96-well Brandel harverster. Four rapid 500 μl washes are performed with chilled Standard Binding Buffer to reduce non-specific binding. Filters are placed in 6 ml scintillation tubes and allowed to dry overnight. The next day, 4 ml of EcoScint scintillation cocktail (National Diagnostics) are added to each tube. The tubes are capped, labeled, and counted by liquid scintillation counting. […] The filter mats are dried, then scintillant is melted onto the filters and the radioactivity retained on the filters is counted in a Microbeta scintillation counter.
# Raw data (dpm) representing total radioligand binding (i.e. specific+non-specific binding) are plotted as a function of the logarithm of the molar concentration of the competitor (i.e. test or reference compound).
# dopamine D5 = dopamine D5 (Homo sapiens, UniProt P21918); details: read-out: Experimental Receptor Binding Data-Ki D5; Table 25, GPCR panel
# Description: as §3
# The 250 μl reactions are incubated at room temperature and shielded from light (to prevent photolysis of light-sensitive ligands) for 1.5 hours, then harvested by rapid filtration onto Whatman GF/B glass fiber filters pre-soaked with 0.3% polyethyleneimine using a 96-well Brandel harverster. Four rapid 500 μl washes are performed with chilled Standard Binding Buffer to reduce non-specific binding. Filters are placed in 6 ml scintillation tubes and allowed to dry overnight. The next day, 4 ml of EcoScint scintillation cocktail (National Diagnostics) are added to each tube. The tubes are capped, labeled, and counted by liquid scintillation counting. […] The filter mats are dried, then scintillant is melted onto the filters and the radioactivity retained on the filters is counted in a Microbeta scintillation counter. […]
# 5-HT2C = target: T1, 5-HT2C (Homo sapiens, UniProt P28335)
# T1 sequence (P28335 33-458): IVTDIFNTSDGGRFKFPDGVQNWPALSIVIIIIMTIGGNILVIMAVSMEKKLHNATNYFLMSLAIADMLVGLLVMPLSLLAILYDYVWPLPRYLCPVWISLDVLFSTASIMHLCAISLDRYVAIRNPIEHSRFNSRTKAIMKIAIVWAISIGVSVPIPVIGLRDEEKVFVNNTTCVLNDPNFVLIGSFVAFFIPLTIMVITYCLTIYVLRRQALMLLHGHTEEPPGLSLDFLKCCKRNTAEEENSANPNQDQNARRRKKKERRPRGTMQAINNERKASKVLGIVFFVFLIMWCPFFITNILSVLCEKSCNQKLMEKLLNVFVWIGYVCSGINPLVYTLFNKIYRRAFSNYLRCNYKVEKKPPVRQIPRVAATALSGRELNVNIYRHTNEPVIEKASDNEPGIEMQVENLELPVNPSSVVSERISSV
# Description: as §1, §2, §3
# (§4) The 250 μl reactions are incubated at room temperature and shielded from light (to prevent photolysis of light-sensitive ligands) for 1.5 hours, then harvested by rapid filtration onto Whatman GF/B glass fiber filters pre-soaked with 0.3% polyethyleneimine using a 96-well Brandel harverster. Four rapid 500 μl washes are performed with chilled Standard Binding Buffer to reduce non-specific binding. Filters are placed in 6 ml scintillation tubes and allowed to dry overnight. […] The tubes are capped, labeled, and counted by liquid scintillation counting. […] The filter mats are dried, then scintillant is melted onto the filters and the radioactivity retained on the filters is counted in a Microbeta scintillation counter. […]
# 5-HT3 = target: T2, 5-HT3 (Homo sapiens, UniProt P46098)
# T2 sequence (P46098 24-478): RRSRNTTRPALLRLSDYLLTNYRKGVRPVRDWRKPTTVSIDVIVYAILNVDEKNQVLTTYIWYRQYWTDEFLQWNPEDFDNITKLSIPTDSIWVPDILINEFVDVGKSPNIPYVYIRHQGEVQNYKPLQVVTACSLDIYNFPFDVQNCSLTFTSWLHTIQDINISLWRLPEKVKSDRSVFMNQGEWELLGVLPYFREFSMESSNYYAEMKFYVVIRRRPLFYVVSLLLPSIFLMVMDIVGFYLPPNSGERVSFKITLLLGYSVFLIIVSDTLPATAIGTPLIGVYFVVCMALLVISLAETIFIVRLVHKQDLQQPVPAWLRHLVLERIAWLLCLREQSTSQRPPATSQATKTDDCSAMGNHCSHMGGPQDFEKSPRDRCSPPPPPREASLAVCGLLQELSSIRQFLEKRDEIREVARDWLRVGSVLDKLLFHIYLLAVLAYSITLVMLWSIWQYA
# Description: as §1, §2, §3, §4
# 5-HT1D, sequence (P28221 whole entry, species assumed): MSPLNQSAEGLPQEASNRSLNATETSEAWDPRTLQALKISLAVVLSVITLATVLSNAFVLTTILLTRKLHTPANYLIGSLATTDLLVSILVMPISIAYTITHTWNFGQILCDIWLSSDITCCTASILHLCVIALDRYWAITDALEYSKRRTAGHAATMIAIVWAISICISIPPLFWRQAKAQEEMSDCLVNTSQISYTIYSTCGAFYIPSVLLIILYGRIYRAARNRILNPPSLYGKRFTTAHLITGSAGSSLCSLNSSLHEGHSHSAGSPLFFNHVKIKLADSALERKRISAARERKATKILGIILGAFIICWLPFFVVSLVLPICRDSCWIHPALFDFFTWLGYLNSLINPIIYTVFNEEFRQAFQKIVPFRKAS
# dopamine D5, sequence (P21918 whole entry): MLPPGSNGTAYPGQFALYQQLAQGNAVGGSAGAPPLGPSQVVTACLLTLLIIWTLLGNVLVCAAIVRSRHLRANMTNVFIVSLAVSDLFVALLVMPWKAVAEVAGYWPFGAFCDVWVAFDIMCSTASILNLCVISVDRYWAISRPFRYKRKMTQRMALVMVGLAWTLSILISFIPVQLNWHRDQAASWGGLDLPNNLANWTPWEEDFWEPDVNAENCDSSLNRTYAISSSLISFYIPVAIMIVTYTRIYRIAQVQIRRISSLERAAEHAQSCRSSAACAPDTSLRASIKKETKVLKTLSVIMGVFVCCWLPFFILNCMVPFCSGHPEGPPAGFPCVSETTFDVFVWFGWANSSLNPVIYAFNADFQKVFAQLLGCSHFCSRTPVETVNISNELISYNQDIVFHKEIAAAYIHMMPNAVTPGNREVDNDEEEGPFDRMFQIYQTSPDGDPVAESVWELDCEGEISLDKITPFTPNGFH
SMILES,Ki (5-HT1D),further results
COc1ccc2c(c1)C(=O)N(CCN1CCN(c3ccccc3OC)CC1)C2 [GFR-VII-280],–,"Ki (5-HT1D; read-out: Experimental Receptor Binding Data-Ki 5HT1D, Table 25, GPCR panel): 139 nM"
COc1ccc2c(c1)CN(CCCN1CCN(c3ccccc3OC)CC1)C2=O [GFR-VII-290],829 nM,–
COc1cc2c(cc1OC)C(=O)N(CCCCN1CCN(c3ccccc3OC)CC1)C2 [GFR-VII-285],298 nM,Ki (dopamine D5): 1890 nM; Ki (5-HT2C): 3430 nM
"CC1Cc2ccccc2N1C(=O)CN1CCN(Cc2ccccc2)CC1 (centres unmarked) [STT-00185638, 2-[-4-(benzyl)-piperazin-1-yl]-1-(2-methy-2,3-dihydro-indol-1-yl)-ethanone]",–,Ki (5-HT3): 2110 nM
COc1ccc2c(c1)C(=O)N(CCCN1CCN(c3ccccc3OC)CC1)C2 [GFR-VII-273],1000 nM,–
COc1ccc2c(c1)C(=O)N(CCN1CCN(c3ccccc3OC)CC1)C2 [GFR-VII-280-HCl],176 nM,–
